Results from patent US20090306165A1, “DIPEPTIDE COMPOUNDS CONTAINING D-HISTIDINE” (priority 2006, published 2009).

Tests used:
[1] = distribution in the rat after oral administration; assay type: in vivo
[2] = pharmacokinetic studies on laboratory animals monitoring plasma carnosine content by liquid chromatography-ESI triple quadrupole mass spectrometry; assay type: in vivo
[3] = detoxification of alpha, beta-unsaturated carbonyl compounds; details: compared with L-carnosine

In the case of `NCCC(=O)N[C@H](Cc1c[nH]cn1)C(=O)O` [D-carnosine, β-alanyl-D-histidine], the “distribution in the lung” value [1] is reported as “distributed in the lung”, the gastrointestinal absorption [2] is reported as “poor gastrointestinal absorption” and the “detoxification of the alpha, beta-unsaturated carbonyl compounds” value [3] is reported as “performs the same detoxification”.
